Converted amounts (≈) assume the structure as drawn.
How the values were obtained:
[1] = test system: Bacillus subtilis; experiment: Antimicrobial activity against Bacillus subtilis ATCC 6633 incubated for 48 hrs by broth dilution method; type: functional, organism-based; details: ATCC 6633, 48 h
[2] = test system: Staphylococcus aureus; experiment: Antimicrobial activity against Staphylococcus aureus BAA-2313 incubated for 48 hrs by broth dilution method; type: functional, organism-based; details: BAA-2313, 48 h
[3] = test system: Saccharomyces cerevisiae; experiment: Antimicrobial activity against Saccharomyces cerevisiae ATCC 9763 incubated for 48 hrs by broth dilution method; type: functional, organism-based; details: ATCC 9763, 48 h
[4] = test system: Candida albicans; experiment: Antimicrobial activity against Candida albicans ATCC 10231 incubated for 48 hrs by broth dilution method; type: functional, organism-based; details: ATCC 10231, 48 h
[5] = test system: A549; experiment: Cytotoxicity against human A549 cells assessed as inhibition of cell growth incubated for 48 hrs by SRB assay; type: functional, cell-based; details: A549, 48 h
[6] = test system: SK-OV-3; experiment: Cytotoxicity against human SKOV3 cells assessed as inhibition of cell growth incubated for 48 hrs by SRB assay; type: functional, cell-based; details: SK-OV-3, 48 h
[7] = test system: SK-MEL-2; experiment: Cytotoxicity against human SK-MEL-2 cells assessed as inhibition of cell growth incubated for 48 hrs by SRB assay; type: functional, cell-based; details: SK-MEL-2, 48 h
[8] = test system: HCT-15; experiment: Cytotoxicity against human HCT15 cells assessed as inhibition of cell growth incubated for 48 hrs by SRB assay; type: functional, cell-based; details: HCT-15, 48 h

Compound	IC50 [1] [µg/mL]	MIC [1] [µg/mL]	IC50 [2] [µg/mL]	MIC [2] [µg/mL]	IC50 [3] [µg/mL]	IC50 [4] [µg/mL]	IC50 [5] [µM]	IC50 [6] [µM]	IC50 [7] [µM]	IC50 [8] [µM]	MFC [3] [µg/mL]	MFC [4] [µg/mL]
C[C@@H]1O[C@@H](O[C@@H]2[C@@H](O)[C@H](OCCc3ccc(O)c(O)c3)O[C@H](CO)[C@@H]2OC(=O)/C=C/c2ccc(O)c(O)c2)[C@H](O)[C@H](O)[C@H]1O	106 (≈ 169 µM)	150 (≈ 240 µM)	165 (≈ 264 µM)	200 (≈ 320 µM)	> 200	> 200	6.78	9.52	4.5	7.03		
CC[C@@H](C)C(=O)c1c(O)cc(O)cc1CC(=O)O	84.1 (≈ 333 µM)	150 (≈ 595 µM)	140 (≈ 556 µM)	200 (≈ 793 µM)	> 200	> 200	> 30	> 30	> 30	> 30		
C[C@@H]1O[C@@H](O[C@@H]2[C@@H](O)[C@H](OCCc3ccc(O)c(O)c3)O[C@H](CO)[C@H]2OC(=O)/C=C/c2ccc(O)c(O)c2)[C@H](O)[C@H](O)[C@H]1O [ACETOSIDE]	98.5 (≈ 158 µM)	150 (≈ 240 µM)	156 (≈ 249 µM)	200 (≈ 320 µM)	> 200	> 200	5.81	7.61	8.52	2.73		
C[C@@H]1[C@H](O)[C@@H](C)/C=C/C=C/C=C/C=C/C=C/C=C/C=C/[C@H](O[C@@H]2O[C@H](C)[C@@H](O)[C@H](N)[C@@H]2O)C[C@@H]2O[C@](O)(C[C@@H](O)C[C@@H](O)[C@H](O)CC[C@@H](O)C[C@@H](O)CC(=O)O[C@H]1C)C[C@H](O)[C@H]2C(=O)O [AMPHOTERICIN B]					0.5 (≈ 0.541 µM)	2.1 (≈ 2.27 µM)					5 (≈ 5.41 µM)	5 (≈ 5.41 µM)
COc1cccc2c1C(=O)c1c(O)c3c(c(O)c1C2=O)C[C@@](O)(C(=O)CO)C[C@@H]3O[C@H]1C[C@H](N)[C@H](O)[C@H](C)O1 [DOXORUBICIN]										0.109		
CN[C@@H]1[C@H](O[C@H]2[C@H](O[C@H]3[C@H](O)[C@@H](O)[C@H](N=C(N)N)[C@@H](O)[C@@H]3N=C(N)N)O[C@@H](C)[C@]2(O)C=O)O[C@@H](CO)[C@H](O)[C@H]1O.CN[C@@H]1[C@H](O[C@H]2[C@H](O[C@H]3[C@H](O)[C@@H](O)[C@H](N=C(N)N)[C@@H](O)[C@@H]3N=C(N)N)O[C@@H](C)[C@]2(O)C=O)O[C@@H](CO)[C@H](O)[C@H]1O.O=S(=O)(O)O.O=S(=O)(O)O.O=S(=O)(O)O [STREPTOMYCIN SULFATE]	4.5	5	8.5	10								

Reference: ChEMBL document CHEMBL3588751, “A new antibacterial octaketide and cytotoxic phenylethanoid glycosides from Pogostemon cablin (Blanco) Benth” (Bioorg Med Chem Lett, 2015)
